For this assay, the system named is Trypanosoma brucei. The assay is described as follows: ALAMARBLUE cell viability / growth assay of T. brucei cells. In kind it is cell-based. The settings on record: for % Inhibition @2 μM / % Inhibition @5 μM / % Inhibition @10 μM: T. brucei, 72 hours, normalized to DMSO control. How it is done: To determine cell growth rate, WT and two TbRPA1 RNAi KD strains (KD1 and KD2) were seeded at a density of 1×10^5 cells/ml and cultured with or without tetracycline for the induction of RNAi. Cells were counted every 12 hours for 2 days. To determine the viability of TbRPA1-depleted cells, ALAMARBLUE® assay (Thermo Fisher, an established colorimetric technique that detects metabolically active cells) was used. Cells from each time point were incubated with ALAMARBLUE® dye for 4-6 hours and percentage of live cells was determined by measuring resorufin converted from resazurin by reducing environment of live cells. Synergy H1 microplate reader (BioTek) was used with 560/590 nm (excitation/emission) filter settings and Relative Fluorescence Unit (RFU) values were obtained. The percentage of viable cells were calculated from the RFU values.
The initial assessment of JC-229's inhibitory effect on T. brucei cell growth was performed at 50 μM concentration. Trypanosome cells were seeded at 1×10^3 cells/ml density in 180 μl in a 96-well culture plate in triplicate. These cells were incubated with 50 μM JC-229 for 24, 48, and 72 hours. DMSO was used as a vehicle control at 0.0075%. JC-229-treated culture and control cultures were analyzed with the ALAMARBLUE® dye as described above.
To obtain the EC50 value of JC-229, T. brucei cells were seeded at 1×10^3 cells/ml density in 180 μl in a 96-well culture plate in triplicate. These cells were incubated for 72 hours with increasing concentrations of JC-229, (0.5 μM to 50 μM) and cell viability was determined using the ALAMARBLUE® dye as described above.
Trypanosoma brucei cytotoxicity of JC-229 and analogs were measured using ALAMARBLUE® assay (Rampersad, S. N. Multiple applications of ALAMARBLUE® as an indicator of metabolic function and cellular health in cell viability bioassays. Sensors (Basel) 12, 12347-12360 (2012). Trypanosome cells were seeded at 1×10^3 cells/ml density in 180 μl in a 96-well culture plate in triplicate. These cells were incubated with indicated concentration of JC compounds for 72 hours. DMSO was used as a vehicle control at 0.0075%. JC compound-treated cultures were then incubated with ALAMARBLUE® dye for 4-6 hours and percentage of live cells was determined using Synergy H1 microplate reader (BioTek) with 560/590 nm (excitation/emission) filter settings and Relative Fluorescence Unit (RFU) values were obtained. The percentage of viable cells were calculated from the RFU values by normalizing to DMSO treated control. In one embodiment, the inhibitor is characterized in that it provides at least 50%, at least 80% or at least 90% inhibition at a concentration of 5 μM when tested in accordance with the above conditions.

Consider 35 molecules from patent US20250188033A1, “INHIBITOR OF REPLICATION PROTEIN A1 OF TRYPANOSOMA BRUCEI AND METHOD OF USE THEREOF” (Research Foundation of the City University of New York, published 2025).

As to `Cc1ccc(C(=O)Nc2ccc(Cl)c(Cl)c2)cc1S(=O)(=O)N1CCC(NS(=O)(=O)c2cccc(F)c2)CC1` [JC-1012], the “% Inhibition @2 μM” value was 36% and the “% Inhibition @5 μM” value was 97%.
On to `Cc1ccc(C(=O)Nc2ccc(Cl)c(Cl)c2)cc1S(=O)(=O)N1CCC(NS(C)(=O)=O)CC1` [JC-969], for which the “% Inhibition @2 μM” value is 18% and the “% Inhibition @5 μM” value was −4%.
`Cc1ccc(C(=O)Nc2ccc(Cl)c(Cl)c2)cc1S(=O)(=O)C1CCN(C(=O)OC(C)(C)C)CC1` [JC-910]: the “% Inhibition @2 μM” value is given as 18% and the “% Inhibition @10 μM” value came out at 73%.
In the case of `Cc1ccc(C(=O)Nc2ccc(Cl)c(Cl)c2)cc1S(=O)(=O)N1CCC(NS(=O)(=O)c2ccc(COc3ccccc3)cc2)CC1` [JC-1013], the “% Inhibition @2 μM” value is 13% and the “% Inhibition @5 μM” value is given as −9%.
Turning to `Cc1ccc(C(=O)Nc2ccc(Cl)c(Cl)c2)cc1S(=O)(=O)NC(Cc1ccccc1)C(N)=O` (stereo not shown) [JC-869], the “% Inhibition @2 μM” value is listed as −34% and the “% Inhibition @10 μM” value is reported as 30%.
On to `Cc1ccc(C(=O)Nc2ccc(Cl)c(Cl)c2)cc1S(=O)(=O)N1CCCC(N)C1.O=C(O)C(F)(F)F` (stereo not shown) [JC-929], for which the “% Inhibition @2 μM” value was determined as 5%, the “% Inhibition @5 μM” value is listed as 99.7% and the “% Inhibition @10 μM” value is recorded as 100%.
For the molecule `Cc1ccc(C(=O)Nc2ccc(Cl)c(Cl)c2)cc1S(=O)(=O)N1CCCC(NC(=S)Nc2ccc(Cl)c(Cl)c2)C1` (stereo not shown) [JC-1007], the “% Inhibition @2 μM” value stood at 100% and the “% Inhibition @5 μM” value turned out to be 101%.
For the molecule `Cc1ccc(C(=O)Nc2ccc(Cl)c(Cl)c2)cc1S(=O)(=O)NC(CO)(CO)CO` [JC-893], the “% Inhibition @2 μM” value is 2% and the “% Inhibition @10 μM” value is −5%.
`Cc1ccc(C(=O)Nc2ccc(Cl)c(Cl)c2)cc1S(=O)(=O)NC1CC(NC(=O)OC(C)(C)C)C1` (stereo not shown) [JC-956]: the “% Inhibition @2 μM” value was −32% and the “% Inhibition @5 μM” value is 19%.
As to `Cc1ccc(C(=O)Nc2ccc(Cl)c(Cl)c2)cc1S(=O)(=O)NCCNC(=O)[C@H](N)Cc1ccccc1` [JC-922], the “% Inhibition @2 μM” value was −7% and the “% Inhibition @10 μM” value was 19%.
Turning to `Cc1ccc(C(=O)Nc2ccc(Cl)c(Cl)c2)cc1S(=O)(=O)NCCNC(=O)Cc1ccccc1` [JC-953], the “% Inhibition @2 μM” value is on record as −34% and the “% Inhibition @5 μM” value is recorded as 32%.
`Cc1ccc(C(=O)Nc2ccc(Cl)c(Cl)c2)cc1S(=O)(=O)NCc1nc2ccccc2[nH]1.O=C(O)C(F)(F)F` [JC-905]: the “% Inhibition @2 μM” value was found to be 8% and the “% Inhibition @10 μM” value amounted to 10%.
With `O=C(Nc1ccc(Cl)c(Cl)c1)c1ccc(O)c(S(=O)(=O)Nc2ccc(Cl)c(Cl)c2)c1` [JC-907], the “% Inhibition @2 μM” value was 12% and the “% Inhibition @10 μM” value is reported as 5%.
Consider `Cc1ccc(C(=O)Nc2ccc(Cl)c(Cl)c2)cc1S(=O)(=O)N1CCC(NC(=S)Nc2cccc(C(F)(F)F)c2)CC1` [JC-1017], for which the “% Inhibition @2 μM” value is recorded as 100% and the “% Inhibition @5 μM” value came out at 100%.
For the molecule `COc1ccc(NC(=S)NC2CCCN(S(=O)(=O)c3cc(C(=O)Nc4ccc(Cl)c(Cl)c4)ccc3C)C2)cc1` (stereo not shown) [JC-1004], the “% Inhibition @2 μM” value was determined as 32% and the “% Inhibition @5 μM” value stood at 94%.
Regarding `CC(=O)c1ccc(NS(=O)(=O)c2cc(C(=O)Nc3ccc(Cl)c(Cl)c3)ccc2C)cc1` [JC-909], the “% Inhibition @2 μM” value turned out to be 15% and the “% Inhibition @10 μM” value is listed as 17%.
As to `Cc1ccc(C(=O)Nc2ccc(Cl)c(Cl)c2)cc1S(=O)(=O)N1CCCC(N)C1.O=C(O)C(F)(F)F` (stereo not shown) [JC-959], the “% Inhibition @2 μM” value is 64% and the “% Inhibition @5 μM” value worked out at 100%.
The like results for `Cc1ccc(C(=O)Nc2ccc(Cl)c(Cl)c2)cc1S(=O)(=O)N1CCC(NC(=O)c2ccccc2)CC1` [JC-966] were, in that order, 13% and 0%.
For the molecule `Cc1ccc(C(=O)Nc2ccc(Cl)c(Cl)c2)cc1S(=O)(=O)C1CCC(NC(=O)OC(C)(C)C)CC1` (stereo not shown) [JC-924], the “% Inhibition @2 μM” value is −2%, the “% Inhibition @5 μM” value turned out to be 99.4% and the “% Inhibition @10 μM” value turned out to be 100%.
Consider `Cc1ccc(C(=O)Nc2ccc(Cl)c(Cl)c2)cc1S(=O)(=O)C1CCNCC1.O=C(O)C(F)(F)F` [JC-911], for which the “% Inhibition @2 μM” value is given as 11% and the “% Inhibition @10 μM” value is listed as 25%.
For `Cc1ccc(C(=O)N[C@H](Cc2ccccc2)C(N)=O)cc1S(=O)(=O)Nc1ccc(Cl)c(Cl)c1` [JC-861], the “% Inhibition @2 μM” value was 5% and the “% Inhibition @10 μM” value came to 4%.
For the molecule `CCOc1ccc2cc(C3CC(c4ccc(Br)cc4)=NN3C(=O)CCC(=O)O)c(Cl)nc2c1` (stereo not shown) [TDRL-505, reference compound], the “effect on T. brucei proliferation” value (even at 60 μM) was “no effect”.
Take `Cc1ccc(C(=O)Nc2ccc(Cl)c(Cl)c2)cc1S(=O)(=O)N1CCCC(NS(C)(=O)=O)C1` (stereo not shown) [JC-964]: the “% Inhibition @2 μM” value is given as −16% and the “% Inhibition @5 μM” value was −23%.
On to `Cc1ccc(C(=O)Nc2ccc(Cl)c(Cl)c2)cc1S(=O)(=O)Nc1ccncc1` [JC-915], for which the “% Inhibition @2 μM” value is given as −11% and the “% Inhibition @10 μM” value is listed as 6%.
The corresponding values for `Cc1ccc(C(=O)Nc2ccc(Cl)c(Cl)c2)cc1S(=O)(=O)N1CCOCC1` [JC-885] are 13% and 38%.
For `Cc1ccc(C(=O)Nc2ccc(Cl)c(Cl)c2)cc1S(=O)(=O)N1CCCC(NC(=O)OC(C)(C)C)C1` (stereo not shown) [JC-962], the “% Inhibition @2 μM” value was determined as 36% and the “% Inhibition @5 μM” value stood at 100%.
Regarding `Cc1ccc(C(=O)NNc2ccccc2)cc1S(=O)(=O)Nc1ccc(Cl)c(Cl)c1` [JC-860], the “% Inhibition @2 μM” value came to 5% and the “% Inhibition @10 μM” value is 24%.
The like results for `Cc1ccc(C(=O)Nc2ccc(Cl)c(Cl)c2)cc1S(=O)(=O)C1CCC(N)CC1` (stereo not shown) [JC-925] were, in that order, −8% and 17%.
For `Cc1ccc(C(=O)Nc2ccc(Cl)c(Cl)c2)cc1S(=O)(=O)NCc1cccc2ccccc12` [JC-887], the “% Inhibition @2 μM” value was −9% and the “% Inhibition @10 μM” value is given as 14%.
`Cc1ccc(C(=O)Nc2ccc(Cl)c(Cl)c2)cc1S(=O)(=O)N(CCCCO)Cc1ccccc1` [JC-891]: the “% Inhibition @2 μM” value is 13%, the “% Inhibition @5 μM” value was 88.8% and the “% Inhibition @10 μM” value is on record as 100%.
With `COc1ccc(NC(=S)NC2CCN(S(=O)(=O)c3cc(C(=O)Nc4ccc(Cl)c(Cl)c4)ccc3C)CC2)cc1` [JC-1016], the “% Inhibition @2 μM” value is listed as 52% and the “% Inhibition @5 μM” value is reported as 100%.
Consider `Cc1ccc(C(=O)Nc2ccc(Cl)c(Cl)c2)cc1S(=O)(=O)NCCNS(=O)(=O)c1ccc(Br)cc1` [JC-923], for which the “% Inhibition @2 μM” value is on record as 2%, the “% Inhibition @5 μM” value is given as 100.9% and the “% Inhibition @10 μM” value is listed as 100%.
`Cc1ccc(C(=O)Nc2ccc(Cl)c(Cl)c2)cc1S(=O)(=O)C1CCCNC1.O=C(O)C(F)(F)F` (stereo not shown) [JC-951]: the “% Inhibition @2 μM” value is 29% and the “% Inhibition @5 μM” value came out at 100%.
The like results for `Cc1ccc(C(=O)Nc2ccc(Cl)c(Cl)c2)cc1S(=O)(=O)NC1CC(N)C1` (stereo not shown) [JC-957] were, in that order, −30% and 84%.
The like results for `COc1ccc(NC(=S)NCCNS(=O)(=O)c2cc(C(=O)Nc3ccc(Cl)c(Cl)c3)ccc2C)cc1` [JC-999] were, in that order, −7% and −6%.
